# Test results from publication PMC12396409, “Screening and hit evaluation of a microbial metabolite library against the pathogenic Plasmodium falciparum and Toxoplasma gondii parasites” (International Journal for Parasitology: Drugs and Drug …, 2025).
# Like-named read-outs stand apart in the source and are kept apart here.
# Experiments:
# [1] = test system: P. falciparum 3D7 parasites; experiment: P. falciparum growth inhibition assay, 1-cycle (72 h treatment), SYBR DNA staining (library screen at 2 μg/mL and dose-response); type: cell-based, Plasmodium falciparum; details: for activity at 2 µg/mL: Plasmodium falciparum, 3D7, 72 h
# [2] = test system: P. falciparum 3D7 parasites; experiment: P. falciparum growth inhibition assay, 2-cycle (120 h treatment), delayed-death screen and dose-response; type: cell-based, Plasmodium falciparum; details: for activity at 2 µg/mL: Plasmodium falciparum, 3D7, 120 h
# [3] = test system: T. gondii RH strain (RH-Tub-eYFP) tachyzoites; experiment: microbe, parasite or virus in culture; type: cell-based, Toxoplasma gondii; details: for percent parasite growth at 2 µg/mL: Toxoplasma gondii; for percent parasite growth at 2 µg/mL / Tg_72h_%Growth_Rep1 / Tg_72h_%Growth_Rep2: 72 h
# [4] = library screen at 2 μg/mL, 72 h, % growth, replicate 1
# [5] = library screen at 2 μg/mL, 72 h, % growth, replicate 2
# [6] = library screen at 2 μg/mL, 120 h, % growth, replicate 1
# [7] = library screen at 2 μg/mL, 120 h, % growth, replicate 2
# [8] = library screen at 2 μg/mL, % growth, replicate 1
# [9] = library screen at 2 μg/mL, % growth, replicate 2
# [10] = active against the parasite at 2 μg/mL, no anti-tumour (NS-1) or cytotoxic (fibroblast) activity at 5 μg/mL
Compound,"Pf_72h_%Growth_Rep1 [1, 4] [%]","Pf_72h_%Growth_Rep2 [1, 5] [%]","Pf_120h_%Growth_Rep1 [2, 6] [%]","Pf_120h_%Growth_Rep2 [2, 7] [%]","Tg_72h_%Growth_Rep1 [3, 8] [%]","Tg_72h_%Growth_Rep2 [3, 9] [%]",also measured
CC1=C[C@@H]2/C=C(\C)CC[C@H](O)[C@H](O)/C=C/C(=O)[C@]23C(=O)N[C@@H](CC(C)C)[C@@H]3[C@@H]1C [Aspochalasin D],,,,,,,"activity at 2 µg/mL ([1]; library screen at 2 μg/mL, 72 h, % growth, replicate 1, read-out: Pf_72h_%Growth_Rep1): 71.8%; activity at 2 µg/mL ([1]; library screen at 2 μg/mL, 72 h, % growth, replicate 2, read-out: Pf_72h_%Growth_Rep2): 78.2%; activity at 2 µg/mL ([2]; library screen at 2 μg/mL, 120 h, % growth, replicate 1, read-out: Pf_120h_%Growth_Rep1): 74.4%; activity at 2 µg/mL ([2]; library screen at 2 μg/mL, 120 h, % growth, replicate 2, read-out: Pf_120h_%Growth_Rep2): 80.7%; percent parasite growth at 2 µg/mL ([3]; library screen at 2 μg/mL, % growth, replicate 1, read-out: Tg_72h_%Growth_Rep1): 5.85%; percent parasite growth at 2 µg/mL ([3]; library screen at 2 μg/mL, % growth, replicate 2, read-out: Tg_72h_%Growth_Rep2): 2.85%"
O=C(O)C1CSC(c2ccccc2O)=N1 (centres unmarked) [Dihydroaeruginoic acid],74.36,72.53,53.55,57.05,51.46,84.93,
CCc1cc(O)cc(O)c1C(=O)O[C@H]1[C@H](O)[C@H](OC)[C@H](OC/C2=C\C=C\C[C@H](O)/C(C)=C/[C@H](CC)[C@@H](O[C@@H]3OC(C)(C)[C@@H](OC(=O)C(C)C)[C@H](O)[C@@H]3O)/C(C)=C/C(C)=C/C[C@@H]([C@@H](C)O)OC2=O)O[C@@H]1C [Didechlorofidaxomicin],4.39,6.69,14.52,29.62,110.91,90.14,
C=C1CC[C@H]2[C@@](C)(CC[C@H]3C(C)(C)[C@@H](OC(C)=O)CC[C@]23C)[C@@H]1Cc1c(O)cc(C)oc1=O [Aszonapyrone A],77.27,75.32,67.56,67.36,111.51,88.05,
Enniatin A,2.40,-1.22,12.21,16.45,2.24,14.07,
CC[C@H](C)C(=O)O[C@H]1CCC=C2C=C[C@H](C)[C@H](CC[C@@H]3C[C@@H](O)CC(=O)O3)[C@H]21 [BIA-M1209],,,,,,,"Pf_72h_%Growth_Rep1 ([1]; P. falciparum 3D7, 72 h, parasite screen at 2 μg/mL, % growth, replicate 1): 86.39%; Pf_72h_%Growth_Rep2 ([1]; P. falciparum 3D7, 72 h, parasite screen at 2 μg/mL, % growth, replicate 2): 121.47%; Pf_120h_%Growth_Rep1 ([2]; P. falciparum 3D7, 120 h, parasite screen at 2 μg/mL, % growth, replicate 1): 88.69%; Pf_120h_%Growth_Rep2 ([2]; P. falciparum 3D7, 120 h, parasite screen at 2 μg/mL, % growth, replicate 2): 112.58%; Tg_72h_%Growth_Rep1 ([3]; T. gondii, parasite screen at 2 μg/mL, % growth, replicate 1): 113.16%; Tg_72h_%Growth_Rep2 ([3]; T. gondii, parasite screen at 2 μg/mL, % growth, replicate 2): 83.90%"
CC(=O)O[C@@H]1/C=C\[C@@](C)(O)C(=O)[C@@H](C)C/C=C\[C@H]2[C@H](O)C(C)=C(C)[C@H]3C(Cc4ccccc4)NC(=O)[C@]132 (some centres unmarked) [cytochalasin C],,,,,,,"Pf_72h_%Growth_Rep1 ([1]; P. falciparum, 72 h, screen at 2 μg/mL, replicate 1): 7.71%; Pf_72h_%Growth_Rep2 ([1]; P. falciparum, 72 h, screen at 2 μg/mL, replicate 2): 8.08%; selectivity for P. falciparum in the screens [1, 10]: active selectively against P. falciparum and T. gondii; Pf_120h_%Growth_Rep1 ([2]; P. falciparum, 120 h, screen at 2 μg/mL, replicate 1): 12.52%; Pf_120h_%Growth_Rep2 ([2]; P. falciparum, 120 h, screen at 2 μg/mL, replicate 2): 10.45%; Tg_72h_%Growth_Rep1 ([3]; T. gondii, screen at 2 μg/mL, replicate 1): 0.57%; Tg_72h_%Growth_Rep2 ([3]; T. gondii, screen at 2 μg/mL, replicate 2): 15.53%; selectivity for T. gondii in the screens [3, 10]: active selectively against P. falciparum and T. gondii"
